Results reported in patent US20250222062A1, “PEPTIDE INHIBITORS TARGETING THE TBL1-BETA-CATENIN COMPLEX” (THE TRANSLATIONAL GENOMICS RESEARCH INSTITUTE, priority 2022, published 2025).
Where no end group is shown, it is not given here.

Key:
TBL1/β-catenin complex = target: T1, TBL1/β-catenin complex (Homo sapiens, UniProt O60907); assay: Sandwich ELISA peptide library screening in colon cancer cell lysates; assay type: binding; conditions: screening of individual peptides, FIG. 7
T1 construct: TBL1/β-catenin complex from lysates of a colon cancer cell with active Wnt signaling was captured; endogenous in cells; host or cells: HCT15 and SW480 colon cancer cell lysates, cells pre-treated with 20 mM LiCl
T1 sequence (O60907 1-577): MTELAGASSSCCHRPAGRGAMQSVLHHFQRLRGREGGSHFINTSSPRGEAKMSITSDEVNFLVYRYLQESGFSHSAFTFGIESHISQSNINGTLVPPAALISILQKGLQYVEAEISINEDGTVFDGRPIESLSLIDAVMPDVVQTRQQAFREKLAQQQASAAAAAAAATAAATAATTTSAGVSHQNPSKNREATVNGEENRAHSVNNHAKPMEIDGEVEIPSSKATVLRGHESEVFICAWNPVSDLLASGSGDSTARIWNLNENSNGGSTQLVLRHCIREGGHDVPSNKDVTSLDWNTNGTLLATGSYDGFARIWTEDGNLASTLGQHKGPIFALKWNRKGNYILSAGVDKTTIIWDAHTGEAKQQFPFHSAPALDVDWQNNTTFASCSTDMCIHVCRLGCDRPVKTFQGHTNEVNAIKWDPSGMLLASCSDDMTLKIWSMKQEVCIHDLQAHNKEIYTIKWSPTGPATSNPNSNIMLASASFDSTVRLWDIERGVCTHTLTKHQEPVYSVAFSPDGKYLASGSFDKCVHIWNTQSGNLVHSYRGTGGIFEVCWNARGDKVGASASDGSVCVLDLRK
Experimental: To identify the peptide or peptides able to disrupt the interaction between TBL1 and (3-catenin, the sandwich ELISA approach was used (see FIG. 4). In this assay TBL1/β-catenin complex from lysates of a colon cancer cell with active Wnt signaling was captured in a Protein G ELISA 96-well plate coated with antibody that recognizes TBL1. To ensure activation of Wnt signaling, the cells were pre-treated with 20 mM LiCl for 12 h a 37° C. The bound complex was then exposed to peptides from the library either as single peptides or in a combination of 2 or 3 peptides to ensure coverage of the potential binding site between TBL1 and β-catenin. After washing away unbound proteins, the plates were incubated with β-catenin antibodies labeled with ALEXA FLUOR® 488 dye, and the level of β-catenin associated to TBL1 was quantified by a plate reader that detects the ALEXA FLUOR® 488 fluorescence probe. As a form of TBL1/β-catenin complex, we used colon cancer cell lines HCT15 and SW480. All the experiments were conducted in triplicate to ensure statistical significance. To reduce variability the assays were performed by using the EPMOTION® liquid handler. We designed a program that controls the peptide seeding into the ELISA plate wells: 1, 2 or 3 peptides per well, with overlap of one peptide in each well.
All wells in the screening were loaded with 1 mg/ml of lysate and incubated at 37° C. for 1 hour. After a wash, peptide combinations were added at a concentration of […] for each peptide and incubated at 37° C. for 2 hours followed by β-catenin detection as described. […] The SW480 lysate standard curve was generated by varying the concentration of lysate without any peptides present.
Additional screening was performed with the peptide library using the assay described in Example 2 with the colon cancer cell lines HCT15 and SW480.
Combinations of three peptides were subsequently assayed at varying concentrations to show a dose response in the disruption of the interaction between TBL1 and β-catenin.
To identify the peptide or peptides able to disrupt the interaction between TBL1 and (3-catenin, we tested the Sandwich ELISA approach. In this assay TBL1/β-catenin complex from lysates of colon cancer cell with active Wnt signaling, is captured in Protein G ELISA 96 well plate coated with antibody that recognizes TBL1. To ensure activation of Wnt signaling, the cells are pre-treated with 20 mM LiCl for 12 h a 37° C. The bound complex is then exposed to peptides from the library either as single peptide or in a combination of 2 or 3 peptides to ensure coverage of the potential binding site between TBL1 and β-catenin. After washing away unbound proteins, the plates are incubated with β-catenin antibodies labeled with Alexa Fluor 488 dye, and the level of β-catenin associated to TBL1 is quantified by a plate reader that detects the 488 fluorescence probe. As a font of TBL1/β-catenin complex we used colon cancer cell lines HCT15 and SW480. All the experiments are conducted in triplicated to ensure statistical significance, and to reduce variability we perform the assays by using the EpiMotion liquid handler. We designed a program that controls the peptide seeding into the ELISA plate wells: 1, 2 or 3 peptides per well, with overlap of one peptides in each well.

[1] = tested on: β-catenin-mediated transcriptional activation (TCF/LEF); assay: TOPFlash TCF/LEF reporter assay, reporter cells transfected with peptides; assay type: cell-based
Experimental: FIGS. 15A and 15B depict the results of a TOPFlash TCF/LEF reporter assay monitoring Wnt/β-catenin signaling pathway activity in cells expressing BC2059 (i.e., positive control) and Peptides 1-5.
A TOPFlash TCF/LEF reporter assay was performed with Peptides 1-5 as described in Veeman M T, et al. (2003) Curr Biol. 13(8):680-5. This is a luciferase reporter assay of (3-catenin-mediated transcriptional activation. Tegatrabetan (BC2059) was used as a positive control in the TOPFlash TCF/LEF reporter assay. Briefly, TCF/LEF reporter cells were transfected with the nucleofection kit. After 48 hours, the ONE-STEP™ luciferase assay was performed.

[2] = target: T2, TBL1 complex (β-catenin displacement) (Homo sapiens, UniProt O60907); assay: Homologous competitive ELISA with increasing logarithmic peptide concentrations; assay type: binding; conditions: increasing logarithmic concentrations of each peptide, FIG. 11
T2 sequence (O60907 1-577): T1 sequence (O60907 1-577)

β-catenin bound to TBL1 = target: T3, β-catenin bound to TBL1 (Homo sapiens, UniProt O60907); assay: Pull-down assay with TBL1 in SW480 cells transfected with peptides, Western blot; assay type: cell-based; conditions: FIG. 14
T3 construct: endogenous in cells; host or cells: SW480 colorectal cancer cells (only the peptides and the GFP control were transfected)
T3 sequence (O60907 1-577): T1 sequence (O60907 1-577)
From the text: FIG. 13 depicts a pull-down assay with TBL1 in the SW480 colorectal cancer (CRC) cell line transfected with the selected peptides.
Tegatrabetan (BC2059) is an antagonist of β-Catenin and was used as a positive control in the pull-down experiments. […] Green fluorescent protein (GFP) was also transfected into the SW480 cells as a negative control.

[3] = tested on: transcription downstream TCF/LEF; assay: Washout TOPFlash assay; assay type: cell-based; conditions: FIG. 18
Experimental: FIG. 18 presents wash out TOPFlash at 8, 12,18, and 24 hour time points: to investigate the effects of peptide 3 over time with a washout TOPFlash assay. To do this we followed the same procedure previously stated but performed washouts at 8, 12, 18, and 24 hour time points. This experiment was completed in duplicate.
FIG. 18 presents wash out TOPFlash at 8, 12,18, and 24 hour time points: to investigate the effects of peptide 3 over time with a washout TOPFlash assay. To do this we followed the same procedure previously stated but performed washouts at 8, 12, 18, and 24 hour time points.
This experiment was completed in duplicate.

[4] = tested on: transcription activity downstream TCF/LEF; assay: TOPFlash assay in HEK293 TCF/LEF luciferase cells stimulated with LiCl and Wnt3a, peptide treatment; assay type: cell-based; conditions: peptide at 5 μM for 6 hours, FIG. 17
Experimental: FIG. 17 presents a TOPFlash assay to determine transcription activity downstream TCF/LEF: HEK293 cells containing a luciferase downstream TCF/LEF were LiCl was administered 16 hours prior to treatment to stimulate the Wnt pathway. Then the cells were treated with recombinant Wnt3a to stimulate transcription and peptide at 5 μM or BC-2059 at 0.5 μM for 6 hours before luciferase expression was quantified with the One-Step Luciferase assay system.
FIG. 22 presents TOPFlash assay to determine transcription activity downstream TCF/LEF: HEK293 cells containing a luciferase downstream TCF/LEF were with LiCl 16 hours prior to treatment to stimulate the Wnt pathway. Then they were treated with recombinant Wnt3a to stimulate transcription and peptide 16 (short) and 2 (long) at 5 μM or BC-2059 at 0.5 μM for 6 hours before luciferase expression was quantified with the One-Step Luciferase assay system.
FIG. 23 presents TOPFlash assay results to determine transcription activity downstream TCF/LEF dependency to peptides: HEK293 cells containing a luciferase downstream TCF/LEF were with LiCl 16 hours prior to treatment to stimulate the Wnt pathway. Then they were treated with recombinant Wnt3a to stimulate transcription and peptide 16 (short) and 2 (long) at different concentrations (300 μM-0.01 μM) for 6 hours before luciferase expression was quantified with the One-Step Luciferase assay system. […]

HCT15 (colon cancer) = assay: Cell viability by CellTiter Glo; assay type: cell-based; conditions: 300 μM-0.01 μM for 72 hours, FIG. 24
SW480 (colon cancer) = assay: Cell viability by CellTiter Glo; assay type: cell-based; conditions: 300 μM-0.01 μM for 72 hours, FIG. 24
H358 (lung cancer) = assay: Cell viability by CellTiter Glo; assay type: cell-based; conditions: 300 μM-0.01 μM for 72 hours, FIG. 24
HCT116 (colon cancer) = assay: Cell viability by CellTiter Glo; assay type: cell-based; conditions: 300 μM-0.01 μM for 72 hours, FIG. 24

AIVEAGGMQALGLHLTDPSQ [Pep19]
disrupting the interaction between TBL1 and β-catenin (TBL1/β-catenin complex): showed efficacy

HQLSKKEASRHAIMRSPQMVSAIVRTMONTNDVETARCTAGTLH (HQLSKKEASRHAIMRSPQMVSAIVRTMQNTNDVETARCTAGTLH) [Peptide 1, longer peptide, from b112 on]
β-catenin-mediated transcriptional activation (luciferase) ([1]; initial evaluation of all five peptides, 48 hours after transfection, FIG. 15A): significant decrease | β-catenin-mediated transcriptional activation (luciferase) ([1]; second experiment evaluating only Peptide 1, FIG. 15B): confirmed the earlier result

LKVLSVCSSNKPAIVEAGGM [Pep18]
disrupting the interaction between TBL1 and β-catenin (TBL1/β-catenin complex): showed efficacy

LKVLSVCSSNKPAIVEAGGMQALGLHLTDPSQRLVQNCLWTLRN [Peptide 4]
displacement of β-catenin from the TBL1 complex [2]: able to displace β-catenin from the TBL1 complex in a dose dependent manner | disrupting the interaction between TBL1 and β-catenin (TBL1/β-catenin complex): showed efficacy | amount of β-catenin bound to TBL1 (β-catenin bound to TBL1): most pronounced effects

NQESKLIILASGGPQALVNIMRTYTYEKLLWTTSRVLKVLSVCS [Peptide 3, longer peptide; in b127-b129 apparently used as CPP peptide]
blocking transcription downstream TCF/LEF ([3]; conclusion of washout TOPFlash): specific and effective | luciferase produced after washout ([3]; peptide washed out after 8 and 12 hours, compared to the non washout control): increase in luciferase produced | levels of luciferase after treatment [4]: decreased levels of luciferase

RTMQNTNDVETARCTAGTLH [Pep6]
cytotoxic effect (cell viability) (HCT15 (colon cancer)): cytotoxic effect | cytotoxic effect (cell viability) (SW480 (colon cancer)): cytotoxic effect | cytotoxic effect (cell viability) (H358 (lung cancer)): cytotoxic effect | cytotoxic effect (cell viability) (HCT116 (colon cancer)): cytotoxic effect

TYEKLLWTTSRVLKVLSVCS [Pep17]
disrupting the interaction between TBL1 and β-catenin (TBL1/β-catenin complex): showed efficacy

VDSVLFYAITTLHNLLLHQEGAKMAVRLAGGLQKMVALLNKTNV [Peptide 2]
cytotoxic effect (cell viability) (HCT15 (colon cancer)): cytotoxic effect | cytotoxic effect (cell viability) (SW480 (colon cancer)): cytotoxic effect | cytotoxic effect (cell viability) (H358 (lung cancer)): cytotoxic effect | cytotoxic effect (cell viability) (HCT116 (colon cancer)): cytotoxic effect

VVTCAAGILSNLTCNNYKNKMMVCQVGGIEALVRTVLRAGDRED [Peptide 5, longer peptide; in b127 apparently used as CPP peptide]
displacement of β-catenin from the TBL1 complex [2]: able to displace β-catenin from the TBL1 complex in a dose dependent manner | disrupting the interaction between TBL1 and β-catenin (TBL1/β-catenin complex): showed efficacy | levels of luciferase after treatment [4]: decreased levels of luciferase | amount of β-catenin bound to TBL1 (β-catenin bound to TBL1): most pronounced effects
